Laboratory results reported in patent publication US20250270190A1, “KIT INHIBITORS” (BLUEPRINT MEDICINES CORPORATION, priority 2022, published 2025).

Each compound was assayed against T1, c-kit autophosphorylation (Phospho c-Kit Tyr721) in HMC 1.1 (exon 11/13) cells, V654A (Homo sapiens, UniProt P10721, V560G/V654A) (assay: pKIT Meso Scale Discovery (MSD) assay, inhibition of autophosphorylation of KIT, HMC1.1_V654A). Settings: Table 1, cell line not named for Table 1, b1056 names pKIT HMC1.1_V654A, read-out: Code (IC50 for inhibition of autophosphorylation of KIT, pKIT MSD assay).
T1 construct: endogenous in cells; host or cells: HMC 1.1 (exon 11/13) cells
Type: cell-based
Source text: In this MSD assay, specific capture antibodies for the analytes were coated in arrays in each well of a 96-well carbon electrode plate surface. The detection system used SULFO-TAG™ labels that emit light upon electrochemical stimulation initiated at the electrode surfaces of the […] and MULTI-SPOT® plates. The electrical stimulation was decoupled from the output signal, which was light and generated assays with minimal background. The goal of this assay was to assess the percent inhibition of autophosphorylation of c-kit in cells when treated with compounds of the disclosure in a dose-dependent manner.
HMC1.1 cells were maintained in IMDM media supplemented with 20% Calf Serum with Iron and 100 units/mL Penicillin-Streptomycin and grown in a 37° C. humidified tissue culture incubator. HMC1.1 cells were passaged by 1:5 dilution into fresh IMDM media supplemented with 20% Calf Serum with Iron and 100 units/mL Penicillin-Streptomycin every 5-7 days and were discarded after 20 passages.
Seeding was performed as follows: HMC cells were brought to 1×10^6 cells/mL in fresh phenol red free, serum-free, iron-free IDM media with Pen/Strep; cells were seeded/plated into respective U-bottom plate by dispensing 50 μL/well (50,000 cells) using the Multidrop, and covered and incubated cells at 37° C. in a humidified tissue culture incubator for 4 hours (starvation).
Dosing was performed as follows: The compound mother plate was prepared by adding 16 μL of compound to 24 μL of DMSO to row A, odd-numbered columns of screen matrix plate. […] Intermediate plates were prepared in V-bottom plates by dispensing 98 μL of phenol red free, serum free IMDM media with Pen/Strep into all wells. 2 μL DMSO or 2 μL 10 mM staurosporine was added to appropriate control wells. At the end of four hours, the Bravo protocol 10 cpds vertical dose MSD 2 U-plates 96-well was used to: add 2 μL from the compound plate to the intermediate plate and dose cells with 7 μL from the intermediate plate. The cells were covered and incubated at 37° C. in a humidified tissue culture incubator for 90 min. The complete lysis buffer was prepared with AlphaLISA 5× Lysis Buffer supplemented with 1× protease inhibitor cocktail and kept on ice. The cells were pelleted by centrifuging plate at 2500×g for 5 min, 4° C. and media removed. Complete lysis buffer was added (14 μL/well). The cells were covered and shaken at 4° C. on a plate shaker at 600 rpm for 30 min and kept cold
The MSD protocol was preformed as follows: Tris Wash Buffer (2L) was prepared by diluting 10× stock of Tris Wash Buffer to 1× in water. Blocking Solution was prepared by dissolving 600 mg Blocker A in 20 mL 1× Trish Wash Buffer (per plate). The Antibody Dilution Buffer was prepared by mixing 1 mL Blocking solution and 2 mL 1× Trish Wash Buffer (per plate) and kept on ice. Blocking Solution was added (150 μL/well) to each MSD plate using a multichannel repeater pipette. The plate was covered and incubated at room temperature on a plate shaker at 700 rpm for hr. The Bio Tek protocol RL-96w-wash-MSD_stacker_fromC was used to wash plates 3× with 150 μL/well. Cells were pelleted by centrifuging lysate plates at 2500×g for 5 mins. The Bravo protocol was used (transfer 25 ul supernatants from V-96 to assay plate) to transfer 25 μL sample lysate per well to each MSD plate. The plates were covered and incubated at room temperature on a plate shaker at 700 rpm for hr. The Bio Tek protocol RL-96w-wash-MSD_stacker_fromC was used to wash plates 3× with 150 μL/well. The Detection Antibody Solution was prepared by diluting the 60 μL of the 50× antibody stock in 2.94 mL of the Antibody Dilution Buffer (per plate) and kept on ice. 25 μL/well of detection antibody solution was added to each MSD plate. The plates were covered and incubated at room temperature on a plate shaker at 700 rpm for 1 hr. The Read Buffer was prepared by diluting 5 mL of 4× stock of Read Buffer to 1× in 15 mL water (per plate).

T1 sequence (P10721 26-976 V560G/V654A): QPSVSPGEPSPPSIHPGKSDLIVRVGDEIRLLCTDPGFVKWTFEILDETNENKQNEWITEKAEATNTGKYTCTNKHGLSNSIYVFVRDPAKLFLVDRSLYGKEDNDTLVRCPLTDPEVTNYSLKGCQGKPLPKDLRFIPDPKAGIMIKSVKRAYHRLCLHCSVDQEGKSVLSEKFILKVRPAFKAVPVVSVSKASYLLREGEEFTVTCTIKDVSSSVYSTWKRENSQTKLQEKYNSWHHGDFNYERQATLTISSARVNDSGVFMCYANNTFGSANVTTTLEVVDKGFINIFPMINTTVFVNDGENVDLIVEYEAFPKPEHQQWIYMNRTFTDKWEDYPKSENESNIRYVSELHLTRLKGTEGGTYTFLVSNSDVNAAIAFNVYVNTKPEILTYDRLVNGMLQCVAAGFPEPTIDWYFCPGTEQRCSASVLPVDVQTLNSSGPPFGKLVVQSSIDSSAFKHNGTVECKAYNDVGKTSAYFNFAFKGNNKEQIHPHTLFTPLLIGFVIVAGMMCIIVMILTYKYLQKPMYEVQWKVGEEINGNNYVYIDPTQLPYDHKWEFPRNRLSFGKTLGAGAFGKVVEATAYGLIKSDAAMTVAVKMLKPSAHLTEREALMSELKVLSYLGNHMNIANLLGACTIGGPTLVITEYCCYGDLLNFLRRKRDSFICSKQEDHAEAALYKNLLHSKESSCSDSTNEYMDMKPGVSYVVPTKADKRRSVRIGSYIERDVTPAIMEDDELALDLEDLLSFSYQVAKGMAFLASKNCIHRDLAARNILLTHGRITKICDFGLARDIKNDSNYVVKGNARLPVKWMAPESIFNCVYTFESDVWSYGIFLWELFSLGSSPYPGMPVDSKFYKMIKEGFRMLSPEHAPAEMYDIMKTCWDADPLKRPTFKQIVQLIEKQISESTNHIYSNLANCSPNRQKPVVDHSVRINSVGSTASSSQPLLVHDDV

Compound | IC50 [nM]
6-((6-amino-2-(difluoromethyl)pyrimidin-4-yl)amino)-N-methyl-4-((4-methyltetrahydro-2H-pyran-4-yl)amino)nicotinamide [Compound 125] | < 10
Cn1cc(-c2cnc(Nc3cc(N)nc(C(F)F)n3)cc2OCC2COC2)cn1 [Compound 104, 2-(difluoromethyl)-N4-(5-(1-methyl-1H-pyrazol-4-yl)-4-(oxetan-3-ylmethoxy)pyridin-2-yl)pyrimidine-4,6-diamine] | < 10
[2H]C([2H])([2H])NC(=O)c1cnc(Nc2cc(N)nc(C(F)F)n2)cc1NC1CC1 [Compound 31, 6-((6-amino-2-(difluoromethyl)pyrimidin-4-yl)amino)-4-(cyclopropylamino)-N-(methyl-d3)nicotinamide] | < 10
Cn1cc(-c2cnc(Nc3cc(N)nc(C(F)F)n3)cc2OCC2CCCO2)cn1 (stereo not shown) [Compound 143, 2-(difluoromethyl)-N4-(5-(1-methyl-1H-pyrazol-4-yl)-4-((tetrahydrofuran-2-yl)methoxy)pyridin-2-yl)pyrimidine-4,6-diamine] | < 10
CNC(=O)c1cnc(Nc2cc(N)nc(C(F)F)n2)cc1NCC1CCC1 [Compound 61, 6-((6-amino-2-(difluoromethyl)pyrimidin-4-yl)amino)-4-((cyclobutylmethyl)amino)-N-methylnicotinamide] | 10 to 40
CNC(=O)c1cnc(Nc2cc(N)nc(CF)n2)cc1N[C@H](C)C(F)F [Compound 47, (R)-6-((6-amino-2-(fluoromethyl)pyrimidin-4-yl)amino)-4-((1,1-difluoropropan-2-yl)amino)-N-methylnicotinamide] | < 10
COc1cc(Nc2cc(N)nc(C(F)F)n2)ncc1-c1cnn(C2CCN(C)C2)c1 (stereo not shown) [Compound 140, 2-(difluoromethyl)-N4-(4-methoxy-5-(1-(1-methylpyrrolidin-3-yl)-1H-pyrazol-4-yl)pyridin-2-yl)pyrimidine-4,6-diamine] | < 10
CNC(=O)c1cnc(Nc2cc(N)nc(CF)n2)cc1NC(C)CF (single isomer, unassigned) [Compound 27, (S)-6-((6-amino-2-(fluoromethyl)pyrimidin-4-yl)amino)-4-((1-fluoropropan-2-yl)amino)-N-methylnicotinamide or (R)-6-((6-amino-2-(fluoromethyl)pyrimidin-4-yl)amino)-4-((1-fluoropropan-2-yl)amino)-N-methylnicotinamide] | 10 to 40
C[C@@H](CF)Oc1cc(Nc2cc(N)nc(C(F)F)n2)ncc1-c1cnn(C)c1 (single isomer, unassigned) [Compound 87, (S)-2-(difluoromethyl)-N4-(4-((1-fluoropropan-2-yl)oxy)-5-(1-methyl-1H-pyrazol-4-yl)pyridin-2-yl)pyrimidine-4,6-diamine or (R)-2-(difluoromethyl)-N4-(4-((1-fluoropropan-2-yl)oxy)-5-(1-methyl-1H-pyrazol-4-yl)pyridin-2-yl)pyrimidine-4,6-diamine] | < 10
CNC(=O)c1cnc(Nc2cc(N)nc(CF)n2)cc1NC(C)CF (single isomer, unassigned) [Compound 28, (R)-6-((6-amino-2-(fluoromethyl)pyrimidin-4-yl)amino)-4-((1-fluoropropan-2-yl)amino)-N-methylnicotinamide or (S)-6-((6-amino-2-(fluoromethyl)pyrimidin-4-yl)amino)-4-((1-fluoropropan-2-yl)amino)-N-methylnicotinamide] | > 40
COc1cc(Nc2cc(N)nc(C(F)F)n2)ncc1-c1cnn(CCN(C)C)c1 [Compound 115, 2-(difluoromethyl)-N4-(5-(1-(2-(dimethylamino)ethyl)-1H-pyrazol-4-yl)-4-methoxypyridin-2-yl)pyrimidine-4,6-diamine] | 10 to 40
CC(C)Oc1cc(Nc2cc(N)nc([C@H](C)F)n2)ncc1-c1cnn(C)c1 [Compound 51, (S)-2-(1-fluoroethyl)-N4-(4-isopropoxy-5-(1-methyl-1H-pyrazol-4-yl)pyridin-2-yl)pyrimidine-4,6-diamine] | < 10
Cn1cc(-c2cnc(Nc3cc(N)nc(C(F)F)n3)cc2OC2CCCOC2)cn1 (stereo not shown) [Compound 142, 2-(difluoromethyl)-N4-(5-(1-methyl-1H-pyrazol-4-yl)-4-((tetrahydro-2H-pyran-3-yl)oxy)pyridin-2-yl)pyrimidine-4,6-diamine] | < 10
CNC(=O)c1cnc(Nc2cc(N)nc(C(F)F)n2)cc1NC1CCC1 [Compound 37, 6-((6-amino-2-(difluoromethyl)pyrimidin-4-yl)amino)-4-(cyclobutylamino)-N-methylnicotinamide] | < 10
CC(Oc1cc(Nc2cc(N)nc(C(F)F)n2)ncc1-c1cnn(C)c1)C(F)F (stereo not shown) [Compound 128, 2-(difluoromethyl)-N4-(4-((1,1-difluoropropan-2-yl)oxy)-5-(1-methyl-1H-pyrazol-4-yl)pyridin-2-yl)pyrimidine-4,6-diamine] | < 10

Second part, the compound after the results:

IC50 [nM] | Compound
< 10 | CC(C)Nc1cc(Nc2cc(N)nc(C(F)F)n2)ncc1C(=O)NCc1cocn1 [Compound 147, 6-((6-amino-2-(difluoromethyl)pyrimidin-4-yl)amino)-4-(isopropylamino)-N-(oxazol-4-ylmethyl)nicotinamide]
< 10 | CC(C)(O)CCn1cc(-c2cnc(Nc3cc(N)nc(C(F)F)n3)cc2OC2CC2)cn1 [Compound 185, 4-(4-(6-((6-amino-2-(difluoromethyl)pyrimidin-4-yl)amino)-4-cyclopropoxypyridin-3-yl)-1H-pyrazol-1-yl)-2-methylbutan-2-ol]
< 10 | CNC(C)Cn1cc(-c2cnc(Nc3cc(N)nc(C(F)F)n3)cc2OC(F)F)cn1 (stereo not shown) [Compound 180, N4-(4-(difluoromethoxy)-5-(1-(2-(methylamino)propyl)-1H-pyrazol-4-yl)pyridin-2-yl)-2-(difluoromethyl)pyrimidine-4,6-diamine]
< 10 | COc1cc(Nc2cc(N)nc(C(F)F)n2)ncc1-c1cnn(CC(C)N(C)C)c1 (stereo not shown) [Compound 150, 2-(difluoromethyl)-N4-(5-(1-(2-(dimethylamino)propyl)-1H-pyrazol-4-yl)-4-methoxypyridin-2-yl)pyrimidine-4,6-diamine]
< 10 | Nc1cc(Nc2cc(OC3CC3)c(-c3cnn(CC4CCO4)c3)cn2)nc(C(F)F)n1 (stereo not shown) [Compound 166, N4-(4-cyclopropoxy-5-(1-(oxetan-2-ylmethyl)-1H-pyrazol-4-yl)pyridin-2-yl)-2-(difluoromethyl)pyrimidine-4,6-diamine]
< 10 | CC(C)Oc1cc(Nc2cc(N)nc([C@H](C)F)n2)ncc1-c1cnn([C@H]2CCOC2)c1 (single isomer, unassigned) [Compound 157, 2-((S)-1-fluoroethyl)-N4-(4-isopropoxy-5-(1-((S)-tetrahydrofuran-3-yl)-1H-pyrazol-4-yl)pyridin-2-yl)pyrimidine-4,6-diamine or 2-((S)-1-fluoroethyl)-N4-(4-isopropoxy-5-(1-((R)-tetrahydrofuran-3-yl)-1H-pyrazol-4-yl)pyridin-2-yl)pyrimidine-4,6-diamine]
10 to 40 | C[C@@H](CF)Nc1cc(Nc2cc(N)nc(C(F)F)n2)ncc1C(=O)NC12CC(CO)(C1)C2 [Compound 188, (S)-6-((6-amino-2-(difluoromethyl)pyrimidin-4-yl)amino)-4-((1-fluoropropan-2-yl)amino)-N-(3-(hydroxymethyl)bicyclo[1.1.1]pentan-1-yl)nicotinamide]
